Measured values as given in US9125913B2, “Bcl-2-selective apoptosis-inducing agents for the treatment of cancer and immune diseases” (AbbVie Inc., priority 2008, dated 2015).

Experiments:
FL5.12/Bcl-2 cells = assay: FL5.12/Bcl-2 cell viability assay; format: cell-based, murine; conditions: ratio of canine platelet EC50 to FL5.12/Bcl-2 EC50
Method in brief: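 Murine IL-3-dependent FL5.12 cells stably overexpressing Bcl-2 were deprived of IL-3 (WEHI-3B conditioned medium omitted) for 48 hrs, then exposed to various compound concentrations for a further 24 hrs at 37° C, 5% CO2. Viability was read by CellTitre Glo luminescence.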

GST-Bcl-2 = assay: TR-FRET binding assay, Bcl-2; conditions: TR-FRET Ki values
Method in brief: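 Ki values come from Wang's competitive-binding equation applied to TR-FRET signal (excitation 340/35 nm; emission 520/525 nm F-Bak peptide, 495/510 nm Tb antibody). Protein, probe and antibody incubated with compound 3 h at room temperature; dilution series began at 50 μM as 2× stock in 10% DMSO.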

Structure (SMILES) | Selectivity Ratio (Platelet EC50/FL5.12/Bcl-2 EC50) (FL5.12/Bcl-2 cells) | Binding selectivity ratio (Bcl-XL Ki/Bcl-2 Ki) (GST-Bcl-2)
O=C(NS(=O)(=O)c1ccc(NCC2CCOCC2)c([N+](=O)[O-])c1)c1ccc(N2CCN(Cc3cc(OCCN4CCOCC4)ccc3-c3ccc(Cl)cc3)CC2)cc1Oc1cccc2[nH]ccc12 [Example 130, 4-(4-{[4′-chloro-4-(2-morpholin-4-ylethoxy)-1,1′-biphenyl-2-yl]methyl}piperazin-1-yl)-2-(1H-indol-4-yloxy)-N-({3-nitro-4-[(tetrahydro-2H-pyran-4-ylmethyl)amino]phenyl}sulfonyl)benzamide] | >254 | >4714.3
O=C(NS(=O)(=O)c1ccc(NCC2CCOCC2)c([N+](=O)[O-])c1)c1ccc(N2CCN(Cc3c(OCCN4CCOCC4)cccc3-c3ccc(Cl)cc3)CC2)cc1Oc1cccc2[nH]ccc12 [Example 131, 4-(4-{[4′-chloro-3-(2-morpholin-4-ylethoxy)-1,1′-biphenyl-2-yl]methyl}piperazin-1-yl)-2-(1H-indol-4-yloxy)-N-({3-nitro-4-[(tetrahydro-2H-pyran-4-ylmethyl)amino]phenyl}sulfonyl)benzamide] | >1597 | 2292.2
O=C(NS(=O)(=O)c1ccc(NCC2CCOCC2)c([N+](=O)[O-])c1)c1ccc(N2CCN(Cc3c(OCCN4CCOCC4)cccc3-c3ccc(Cl)cc3)CC2)cc1Oc1ccc2[nH]ccc2c1 [Example 132, 4-(4-{[4′-chloro-3-(2-morpholin-4-ylethoxy)-1,1′-biphenyl-2-yl]methyl}piperazin-1-yl)-2-(1H-indol-5-yloxy)-N-({3-nitro-4-[(tetrahydro-2H-pyran-4-ylmethyl)amino]phenyl}sulfonyl)benzamide] | >1196 | 570.1
CN(C)CCOc1ccc(-c2ccc(Cl)cc2)c(CN2CCN(c3ccc(C(=O)NS(=O)(=O)c4ccc(NC5CCN(C)CC5)c([N+](=O)[O-])c4)c(Oc4ccccc4)c3)CC2)c1 [Example 133, 4-[4-({4′-chloro-4-[2-(dimethylamino)ethoxy]-1,1′-biphenyl-2-yl}methyl)piperazin-1-yl]-N-({4-[(1-methylpiperidin-4-yl)amino]-3-nitrophenyl}sulfonyl)-2-phenoxybenzamide] | 5 | 31.2
CN(C)CCOc1cccc(-c2ccc(Cl)cc2)c1CN1CCN(c2ccc(C(=O)NS(=O)(=O)c3ccc(NCCCN4CCCC4)c([N+](=O)[O-])c3)c(Oc3ccc4[nH]ccc4c3)c2)CC1 [Example 134, 4-[4-({4′-chloro-3-[2-(dimethylamino)ethoxy]-1,1′-biphenyl-2-yl}methyl)piperazin-1-yl]-2-(1H-indol-5-yloxy)-N-({3-nitro-4-[(3-pyrrolidin-1-ylpropyl)amino]phenyl}sulfonyl)benzamide] | 98 | 347.1
CN(C)CCOc1ccc(-c2ccc(Cl)cc2)c(CN2CCN(c3ccc(C(=O)NS(=O)(=O)c4ccc(NCCCN5CCCC5)c([N+](=O)[O-])c4)c(Oc4ccc5[nH]ccc5c4)c3)CC2)c1 [Example 135, 4-[4-({4′-chloro-4-[2-(dimethylamino)ethoxy]-1,1′-biphenyl-2-yl}methyl)piperazin-1-yl]-2-(1H-indol-5-yloxy)-N-({3-nitro-4-[(3-pyrrolidin-1-ylpropyl)amino]phenyl}sulfonyl)benzamide] | 108 | 779.9
O=C(NS(=O)(=O)c1ccc(NCCCN2CCCC2)c([N+](=O)[O-])c1)c1ccc(N2CCN(Cc3cc(OCCN4CCOCC4)ccc3-c3ccc(Cl)cc3)CC2)cc1Oc1ccc2[nH]ccc2c1 [Example 136, 4-(4-{[4′-chloro-4-(2-morpholin-4-ylethoxy)-1,1′-biphenyl-2-yl]methyl}piperazin-1-yl)-2-(1H-indol-5-yloxy)-N-({3-nitro-4-[(3-pyrrolidin-1-ylpropyl)amino]phenyl}sulfonyl)benzamide] | >263 | 238.9
